Measured values: patent US20250205344A1, “2,4-DIOXOTETRAHYDROPYRIMIDINYL DERATIVES AS DEGRONS IN PROTACS” (GLAXOSMITHKLINE INTELLECTUAL PROPERTY DEVELOPMENT LIMITED, priority 2022, published 2025)
Where a name gives a salt, the structure may show the parent alone.

Target: T1, Androgen Receptor (Homo sapiens, UniProt P10275, T878A)
T1 construct: the AR gene was modified, using CRISPR/Cas9 editing, so the expressed AR protein included an 11 amino acid HiBiT tag; endogenous in cells; host or cells: clonal LnCaP-derived line, AR gene edited by CRISPR/Cas9
Assay: Androgen Receptor Degradation Assay (Nano-Glo HiBiT)
Assay type: cell-based
Settings: LNCaP, 18 h, HiBiT-tagged AR in human LnCaP cells, read-out: mean asymptote max
Experimental: Degradation of Androgen Receptor protein in human LnCaP cells treated with PROTACs was quantified using the Nano-Glo® HiBiT Lytic Detection System (Promega) in 384 well assay plate format. A clonal LnCaP derived cell line was first established in which the AR gene was modified, using CRISPR/Cas9 editing, so the expressed AR protein included an 11 amino acid HiBiT tag at its amino-terminus. 10 mM DMSO stock solutions of PROTACs were prepared and diluted across an 11 concentration, 3 fold increment range, and 25 nL dispensed into a white opaque bottomed 384 well assay plate (Thermofisher) using an acoustic ECHO dispenser (Labcyte). […] For the assay, cells were detached from flask and resuspended with assay medium (FluoroBrite™ DMEM supplemented with 10% heat inactivated FBS, penicillin 50 U/mL and streptomycin 50 ug/mL (Thermofisher)). The cell suspension was centrifuged at 400 g for 5 min and the pellet resuspended in assay medium. 25 μL of cell suspension containing 10,000 cells was dispensed into each well of the assay plate containing the test compounds, which was then incubated for 18 h at 37° C./5% CO2. Control wells were included on each assay plate, with assay medium without cells being the no AR remaining 100% effect control, and cells treated with DMSO vehicle only, without PROTAC, the 0% effect control. 25 μL of Nano-Glo® HiBiT lysis buffer supplemented with LgBiT protein and Nano-Glo® substrate (Promega) was added to each well and the plate shaken at 500 rpm for 10 min at room temperature. The intensity of luminescence was measured using a PHERAstar microplate reader (BMG Labtech) and the % AR protein remaining in each well calculated by normalising the raw luminescence value to the above control wells. Parameters corresponding to the potency and efficacy estimates of the PROTACs were obtained from these normalised luminescence values using software (IDBS ActivityBase). These included the DC50 and the Dmax estimates. Two versions of the DC50, called relative DC50 and absolute DC50, were typically generated. These are the inflection point of a fitted 4 parameter sigmoidal response curve and the interpolated concentration of PROTAC corresponding to 50% of the protein being degraded, respectively. The Dmax parameter was the maximum experimentally observed degradation and the asymptote max parameter the fitted response curve asymptote maximum.

T1 sequence (P10275 whole entry T878A): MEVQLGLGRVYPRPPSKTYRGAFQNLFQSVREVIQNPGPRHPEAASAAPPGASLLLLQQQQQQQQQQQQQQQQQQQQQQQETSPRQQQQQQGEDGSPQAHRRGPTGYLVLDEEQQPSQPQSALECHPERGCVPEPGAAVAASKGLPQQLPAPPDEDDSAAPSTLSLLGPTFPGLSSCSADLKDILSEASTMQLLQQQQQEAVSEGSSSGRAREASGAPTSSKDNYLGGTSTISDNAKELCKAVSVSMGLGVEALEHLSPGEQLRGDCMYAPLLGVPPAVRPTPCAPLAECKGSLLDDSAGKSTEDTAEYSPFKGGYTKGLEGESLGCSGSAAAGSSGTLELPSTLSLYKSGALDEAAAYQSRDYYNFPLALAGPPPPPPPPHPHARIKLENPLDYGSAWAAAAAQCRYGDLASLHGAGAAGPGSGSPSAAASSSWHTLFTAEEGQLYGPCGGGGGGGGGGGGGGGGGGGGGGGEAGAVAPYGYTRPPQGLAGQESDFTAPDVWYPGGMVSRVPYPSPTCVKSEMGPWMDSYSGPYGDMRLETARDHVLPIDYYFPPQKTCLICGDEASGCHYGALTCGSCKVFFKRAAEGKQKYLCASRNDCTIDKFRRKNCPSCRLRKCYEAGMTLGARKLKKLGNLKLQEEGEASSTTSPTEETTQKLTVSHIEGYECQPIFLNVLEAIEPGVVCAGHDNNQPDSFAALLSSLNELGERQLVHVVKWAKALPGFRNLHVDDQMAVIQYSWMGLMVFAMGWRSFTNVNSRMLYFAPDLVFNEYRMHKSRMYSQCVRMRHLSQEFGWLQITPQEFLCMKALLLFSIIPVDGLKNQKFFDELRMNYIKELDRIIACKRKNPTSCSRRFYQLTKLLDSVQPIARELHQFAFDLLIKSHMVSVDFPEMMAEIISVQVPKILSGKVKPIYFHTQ
T1 sequence (Q96SW2 whole entry partner): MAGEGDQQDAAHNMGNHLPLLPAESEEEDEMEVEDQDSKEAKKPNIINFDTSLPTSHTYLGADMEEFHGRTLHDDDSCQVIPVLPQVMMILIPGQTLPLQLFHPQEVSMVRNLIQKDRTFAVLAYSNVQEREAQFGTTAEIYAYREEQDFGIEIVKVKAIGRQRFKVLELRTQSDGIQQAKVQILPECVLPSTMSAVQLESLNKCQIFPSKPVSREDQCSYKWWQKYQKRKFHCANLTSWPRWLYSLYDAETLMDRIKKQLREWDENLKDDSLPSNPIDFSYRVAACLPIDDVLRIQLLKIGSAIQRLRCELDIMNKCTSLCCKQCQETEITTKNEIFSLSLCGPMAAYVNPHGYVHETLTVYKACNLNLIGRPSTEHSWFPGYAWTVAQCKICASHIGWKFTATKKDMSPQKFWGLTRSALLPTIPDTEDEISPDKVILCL
T1 sequence (Q16531 whole entry partner): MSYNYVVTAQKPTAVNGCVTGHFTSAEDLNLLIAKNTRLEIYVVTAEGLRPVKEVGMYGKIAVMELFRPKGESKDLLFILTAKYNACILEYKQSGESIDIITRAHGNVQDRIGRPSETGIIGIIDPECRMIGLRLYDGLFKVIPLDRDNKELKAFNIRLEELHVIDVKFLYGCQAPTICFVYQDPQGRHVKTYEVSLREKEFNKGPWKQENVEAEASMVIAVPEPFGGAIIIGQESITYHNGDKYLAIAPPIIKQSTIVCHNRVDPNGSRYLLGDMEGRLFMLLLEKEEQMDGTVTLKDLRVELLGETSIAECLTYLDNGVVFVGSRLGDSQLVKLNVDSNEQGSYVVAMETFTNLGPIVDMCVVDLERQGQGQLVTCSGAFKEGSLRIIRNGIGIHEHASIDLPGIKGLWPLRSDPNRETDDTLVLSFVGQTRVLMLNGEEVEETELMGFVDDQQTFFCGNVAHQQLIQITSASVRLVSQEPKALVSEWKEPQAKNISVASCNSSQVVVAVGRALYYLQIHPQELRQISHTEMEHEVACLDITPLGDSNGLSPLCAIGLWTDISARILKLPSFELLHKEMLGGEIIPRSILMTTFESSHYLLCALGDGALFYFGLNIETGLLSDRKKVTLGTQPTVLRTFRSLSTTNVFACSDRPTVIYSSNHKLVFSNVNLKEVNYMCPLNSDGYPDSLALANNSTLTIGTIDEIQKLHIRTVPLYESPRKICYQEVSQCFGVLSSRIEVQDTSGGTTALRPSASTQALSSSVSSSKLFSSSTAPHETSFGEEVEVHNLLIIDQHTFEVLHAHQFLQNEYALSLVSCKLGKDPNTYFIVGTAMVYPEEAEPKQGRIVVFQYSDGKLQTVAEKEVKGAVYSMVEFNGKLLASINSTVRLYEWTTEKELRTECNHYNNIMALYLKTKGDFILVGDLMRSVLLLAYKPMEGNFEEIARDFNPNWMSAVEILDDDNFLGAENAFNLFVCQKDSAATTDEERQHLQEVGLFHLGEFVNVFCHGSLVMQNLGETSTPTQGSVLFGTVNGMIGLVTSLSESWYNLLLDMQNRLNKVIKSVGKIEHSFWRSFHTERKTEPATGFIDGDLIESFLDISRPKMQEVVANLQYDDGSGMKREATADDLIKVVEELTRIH

SMILES	Dmax [%]
N#Cc1ccc(O[C@H]2CC[C@H](NC(=O)c3cnc(N4CCC(CN5CCC(n6ccc7c(N8CCC(=O)NC8=O)cccc76)CC5)CC4)cn3)CC2)cc1Cl [EAR9, N-((1r,4r)-4-(3-Chloro-4-cyanophenoxy)cyclohexyl)-5-(4-((4-(4-(2,4-dioxotetrahydropyrimidin-1(2H)-yl)-1H-indol-1-yl)piperidin-1-yl)methyl)piperidin-1-yl)pyrazine-2-carboxamide]	≥ 50
N#Cc1ccc(O[C@H]2CC[C@H](NC(=O)c3ccc(N4CCC(CN5CCC(n6ccc7c(-n8ccc(=O)[nH]c8=O)cccc76)CC5)CC4)nn3)CC2)cc1Cl [EAR141, N-((1r,4r)-4-(3-Chloro-4-cyanophenoxy)cyclohexyl)-6-(4-((4-(4-(2,4-dioxo-3,4-dihydropyrimidin-1(2H)-yl)-1H-indol-1-yl)piperidin-1-yl)methyl)piperidin-1-yl)pyridazine-3-carboxamide, hydrochloride]	≥ 50
N#Cc1ccc(O[C@H]2CC[C@H](NC(=O)c3ccc(N4CCC[C@@H](CN5CCC(n6ncc7c(N8CCC(=O)NC8=O)cccc76)CC5)C4)nn3)CC2)cc1Cl (single isomer, unassigned) [EAR137]	≥ 50
N#Cc1ccc(O[C@H]2CC[C@H](NC(=O)c3ccc(N4CCC(CN5CCC(n6ccc7c(N8CCC(=O)NC8=O)cncc76)CC5)CC4)nc3)CC2)cc1Cl [EAR50, N-((1r,4r)-4-(3-Chloro-4-cyanophenoxy)cyclohexyl)-6-(4-((4-(4-(2,4-dioxotetrahydropyrimidin-1(2H)-yl)-1H-pyrrolo[2,3-c]pyridin-1-yl)piperidin-1-yl)methyl)piperidin-1-yl)nicotinamide hydrochloride]	≥ 50
C[C@@H]1CN(c2ccc(C#N)c(Cl)c2)[C@@H](C)CN1C(=O)c1cnc(N2CCC(CN3CCC(n4ncc5c(N6CCC(=O)NC6=O)cncc54)CC3)CC2)cn1 [EAR150, 2-Chloro-4-((2S,5R)-4-(5-(4-((4-(4-(2,4-dioxotetrahydropyrimidin-1(2H)-yl)-1H-pyrazolo[3,4-c]pyridin-1-yl)piperidin-1-yl)methyl)piperidin-1-yl)pyrazine-2-carbonyl)-2,5-dimethylpiperazin-1-yl)benzonitrile]	≥ 50
CC1(C)C(=O)N(c2ccc(C#N)c(C(F)(F)F)c2)C(=S)N1c1ccc(N2CCC(CN3CCC(n4ccc5c(N6CCC(=O)NC6=O)cccc54)CC3)CC2)cc1 [EAR99, 4-(3-(4-(4-((4-(4-(2,4-Dioxotetrahydropyrimidin-1(2H)-yl)-1H-indol-1-yl)piperidin-1-yl)methyl)piperidin-1-yl)phenyl)-4,4-dimethyl-5-oxo-2-thioxoimidazolidin-1-yl)-2-(trifluoromethyl)benzonitrile formate]	≥ 50
N#Cc1ccc(O[C@H]2CC[C@H](NC(=O)c3ccc(N4CCC(CN5CCC(n6ncc7c(N8CCC(=O)NC8=O)cccc76)CC5)CC4)nc3)CC2)cc1Cl [EAR42, N-((1r,4r)-4-(3-Chloro-4-cyanophenoxy)cyclohexyl)-6-(4-((4-(4-(2,4-dioxotetrahydropyrimidin-1(2H)-yl)-1H-indazol-1-yl)piperidin-1-yl)methyl)piperidin-1-yl)nicotinamide hydrochloride]	≥ 50
N#Cc1ccc(O[C@H]2CC[C@H](NC(=O)c3cnc(N4CCC(CN5CCC(n6ncc7c(N8CCC(=O)NC8=O)cccc76)CC5)CC4)cn3)CC2)cc1C(F)(F)F [EAR38, N-((1r,4r)-4-(4-Cyano-3-(trifluoromethyl)phenoxy)cyclohexyl)-5-(4-((4-(4-(2,4-dioxotetrahydropyrimidin-1(2H)-yl)-1H-indazol-1-yl)piperidin-1-yl)methyl)piperidin-1-yl)pyrazine-2-carboxamide hydrochloride]	≥ 50
N#Cc1ccc(O[C@H]2CC[C@H](NC(=O)c3ccc(N4CCC(CN5CCC(n6ncc7c(N8CCC(=O)NC8=O)nccc76)CC5)CC4)nn3)CC2)cc1Cl [EAR51, N-((1r,4r)-4-(3-Chloro-4-cyanophenoxy)cyclohexyl)-6-(4-((4-(4-(2,4-dioxotetrahydropyrimidin-1(2H)-yl)-1H-pyrazolo[4,3-c]pyridin-1-yl)piperidin-1-yl)methyl)piperidin-1-yl)pyridazine-3-carboxamide]	≥ 50
CC1(C)C(=O)N(c2ccc(C#N)c(C(F)(F)F)c2)C(=S)N1c1ccc(N2CCC(CN3CCC(n4ncc5c(N6CCC(=O)NC6=O)cccc54)CC3)CC2)cc1 [EAR95, 4-(3-(4-(4-((4-(4-(2,4-Dioxotetrahydropyrimidin-1(2H)-yl)-1H-indazol-1-yl)piperidin-1-yl)methyl)piperidin-1-yl)phenyl)-4,4-dimethyl-5-oxo-2-thioxoimidazolidin-1-yl)-2-(trifluoromethyl)benzonitrile]	≥ 50

Other lines, results leading:

Dmax [%]	SMILES
≥ 50	CC1(CN2CCC(n3ncc4c(N5CCC(=O)NC5=O)cccc43)CC2)CCN(c2ccc(C(=O)N[C@H]3CC[C@H](Oc4ccc(C#N)c(Cl)c4)CC3)nn2)CC1 [EAR242, N-((1r,4r)-4-(3-chloro-4-cyanophenoxy)cyclohexyl)-6-(4-((4-(4-(2,4-dioxotetrahydropyrimidin-1(2H)-yl)-1H-indazol-1-yl)piperidin-1-yl)methyl)-4-methylpiperidin-1-yl)pyridazine-3-carboxamide]
≥ 50	CC1CC(CN2CCC(n3ncc4c(N5CCC(=O)NC5=O)cccc43)CC2)CN1c1ccc(C(=O)N[C@H]2CC[C@H](Oc3ccc(C#N)c(Cl)c3)CC2)nn1 (stereo partly drawn) [EAR232, N-((1r,4r)-4-(3-chloro-4-cyanophenoxy)cyclohexyl)-6-(4-((4-(4-(2,4-dioxotetrahydropyrimidin-1(2H)-yl)-1H-indazol-1-yl)piperidin-1-yl)methyl)-2-methylpyrrolidin-1-yl)pyridazine-3-carboxamide]
≥ 50	N#Cc1ccc(O[C@H]2CC[C@H](NC(=O)c3ccc(N4CCC(CN5CCC(F)(Cn6ccc7c(N8CCC(=O)NC8=O)cccc76)CC5)CC4)nn3)CC2)cc1Cl [EAR168, N-((1r,4r)-4-(3-Chloro-4-cyanophenoxy)cyclohexyl)-6-(4-((4-((4-(2,4-dioxotetrahydropyrimidin-1(2H)-yl)-1H-indol-1-yl)methyl)-4-fluoropiperidin-1-yl)methyl)piperidin-1-yl)pyridazine-3-carboxamide]
≥ 50	N#Cc1ccc(O[C@H]2CC[C@H](NC(=O)c3ccc(N4CCC(CN5CC[C@@H](n6ccc7c(N8CCC(=O)NC8=O)cccc76)C5)CC4)nn3)CC2)cc1Cl [EAR172, N-((1r,4r)-4-(3-Chloro-4-cyanophenoxy)cyclohexyl)-6-(4-(((S)-3-(4-(2,4-dioxotetrahydropyrimidin-1(2H)-yl)-1H-indol-1-yl)pyrrolidin-1-yl)methyl)piperidin-1-yl)pyridazine-3-carboxamide, hydrochloride]
≥ 50	CC1CN(c2ccc(C(=O)N[C@H]3CC[C@H](Oc4ccc(C#N)c(Cl)c4)CC3)nn2)CCC1CN1CCC(n2ncc3c(N4CCC(=O)NC4=O)cccc32)CC1 (stereo partly drawn) [EAR234, N-((1r,4r)-4-(3-chloro-4-cyanophenoxy)cyclohexyl)-6-(4-((4-(4-(2,4-dioxotetrahydropyrimidin-1(2H)-yl)-1H-indazol-1-yl)piperidin-1-yl)methyl)-3-methylpiperidin-1-yl)pyridazine-3-carboxamide]
